Laboratory results as given in patent US20190374533A1, “COMPOUNDS AND METHODS FOR INHIBITING NHE-MEDIATED ANTIPORT IN THE TREATMENT OF DISORDERS ASSOCIATED WITH FLUID RETENTION OR SALT OVERLOAD AND GASTROINTESTINAL TRACT DISORDERS” (Ardelyx, Inc., priority 2008, published 2019).
Where a name gives a salt, the structure may show the parent alone.

How the values were obtained:
[1] = target: T1, human NHE3 (Homo sapiens, UniProt P48764); assay: Cell-based assay of NHE-3 activity (persistent inhibition), human; conditions: human Persistence assay; for IC50: 60 min incubation, washout, recovery initiated 10 min after washout
T1 construct: host or cells: PS120 fibroblasts
T1 sequence (P48764 26-834): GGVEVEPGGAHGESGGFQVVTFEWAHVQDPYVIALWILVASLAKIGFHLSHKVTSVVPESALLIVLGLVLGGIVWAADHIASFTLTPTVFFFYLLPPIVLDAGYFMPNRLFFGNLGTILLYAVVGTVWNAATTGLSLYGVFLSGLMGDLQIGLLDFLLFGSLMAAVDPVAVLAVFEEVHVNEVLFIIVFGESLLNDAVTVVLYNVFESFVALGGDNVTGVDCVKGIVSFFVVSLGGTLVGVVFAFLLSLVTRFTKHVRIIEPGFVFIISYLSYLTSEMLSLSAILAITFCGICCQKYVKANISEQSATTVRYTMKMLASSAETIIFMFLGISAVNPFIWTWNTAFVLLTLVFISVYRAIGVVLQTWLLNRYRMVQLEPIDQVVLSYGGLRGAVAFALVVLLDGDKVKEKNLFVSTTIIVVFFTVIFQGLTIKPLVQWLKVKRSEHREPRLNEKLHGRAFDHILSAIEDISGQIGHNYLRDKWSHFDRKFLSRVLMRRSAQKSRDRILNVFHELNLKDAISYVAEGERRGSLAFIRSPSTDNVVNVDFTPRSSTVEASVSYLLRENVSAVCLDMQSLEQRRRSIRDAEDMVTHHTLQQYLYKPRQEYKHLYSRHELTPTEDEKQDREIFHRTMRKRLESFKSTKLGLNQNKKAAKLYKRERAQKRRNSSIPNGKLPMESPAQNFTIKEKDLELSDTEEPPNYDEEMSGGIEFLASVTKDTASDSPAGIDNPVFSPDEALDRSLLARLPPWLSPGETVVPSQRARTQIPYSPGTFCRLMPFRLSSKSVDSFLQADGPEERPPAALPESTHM
T1 sequence (Q99653 2-195 partner limits assumed): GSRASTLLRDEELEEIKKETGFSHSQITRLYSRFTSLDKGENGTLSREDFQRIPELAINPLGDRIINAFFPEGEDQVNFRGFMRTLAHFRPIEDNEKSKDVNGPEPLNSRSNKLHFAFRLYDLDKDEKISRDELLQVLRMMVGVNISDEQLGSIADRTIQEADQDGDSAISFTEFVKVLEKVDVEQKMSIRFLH
Protocol: The ability of compounds to inhibit human and rat NHE-3-mediated Na^+-dependent H^+ antiport after application and washout was measured using a modification of the pH sensitive dye method described above. PS120 fibroblasts stably expressing human NHE3 and NHERF2 were obtained from Mark Donowitz (Baltimore, Md.). Opossum kidney (OK) cells were obtained from the ATCC and propagated per their instructions. The rat NHE-3 gene was introduced into OK cells via electroporation, and cells were seeded into 96 well plates and grown overnight. Medium was aspirated from the wells, cells were washed once with NaCl-HEPES buffer (100 mM NaCl, 50 mM HEPES, 10 mM glucose, 5 mM KCl, 2 mM CaCl2, 1 mM MgCl2, pH 7.4), then overlayed with NaCl-HEPES buffer containing 0-30 μM test compound. After a 60 min incubation at room temperature, the test drug containing buffer was aspirated from the cells. Following aspiration, cells were washed once with NaCl-HEPES buffer without drug, then incubated for 30 min at 37° C. with NH4Cl-HEPES buffer (20 mM NH4Cl, 80 mM NaCl, 50 mM HEPES, 5 mM KCl, 2 mM CaCl2, 1 mM MgCl2, pH 7.4) containing 5 μM BCECF-AM. Cells were washed once with Ammonium free, Na^+-free HEPES (100 mM choline, 50 mM HEPES, 10 mM glucose, 5 mM KCl, 2 mM CaCl2. 1 mM MgCl2. pH 7.4) and incubated in the same buffer for 10 minutes at room temperature to lower intracellular pH. NHE-3-mediated recovery of neutral intracellular pH was initiated (10 min after compound washout) by addition of Na-HEPES buffer. […] Changes in intracellular pH were monitored using a FLIPR Tetra® (Molecular Devices, Sunnyvale, Calif.) by excitation at λex 439 to 505 nm, and measuring BCECF fluorescence at λem 538 nm. The initial rate of the fluorescence ratio change was used as a measure of NHE-mediated Na^+/H^+ activity, and reported as the change in fluorescence ratio per minute.

[2] = system: fecal water content; assay: Pharmacodynamic model: effect of test compounds on fecal water content; format: in vivo, rat; conditions: female Sprague Dawley rats, 3 mg/kg oral, feces collected 16 hrs; for % Fecal water: mean of 6
Protocol: Normal female Sprague Dawlev rats (Charles-River laboratories international, Hollister, Calif.), 7-8 weeks old with body weight 175-200 g were acclimated for at least 3 days before proceeding to experiments. The animals were provided food (Harlan Teklad 2018c) and water ad lib, through the experiment. Animals were randomly grouped with 6 rats per group.
The experiments were initiated by orally dosing test compounds at 3 mg/kg in volume of 10 ml/kg. Rats from control group were gavaged with the same volume of vehicle (water). After dosing, rats were placed in metabolic cages for 16 hrs (overnight). Food and water consumption were monitored. After sixteen hours, feces and urine were collected. The percent of fecal water was measured by weighing fecal samples before and after drying.
Representative data of % fecal water content are shown in Table 12 (data are expressed as means, with 6 animals per data point). The differences between control and treated groups were evaluated by one way ANOVA with Dunnett post tests. Results are significant if p<0.05.

| Compound | % inhibition [1] | IC50 [1] [µM] | % Fecal water (% of control) [2] | % Fecal water [2] [%] |
| --- | --- | --- | --- | --- |
| CN1Cc2c(Cl)cc(Cl)cc2[C@H](c2cccc(S(=O)(=O)NCCOCCOCCNC(=O)NCCCCNC(=O)NCCOCCOCCNS(=O)(=O)c3cccc([C@@H]4CN(C)Cc5c(Cl)cc(Cl)cc54)c3)c2)C1 (single isomer, unassigned) [Example 202, (S or R)—N,N′-(10,17-dioxo-3,6,21,24-tetraoxa-9,11,16,18-tetraazahexacosane-1,26-diyl)bis(3-((S)-6,8-dichloro-2-methyl-1,2,3,4-tetrahydroisoquinolin-4-yl)benzenesulfonamide) bis-hydrochloride salt] | C (>70%) | < 0.1 | 134% of control | 63 |
| CN1Cc2c(Cl)cc(Cl)cc2[C@H](c2cccc(S(=O)(=O)NCCOCCOCCNC(=O)Nc3ccc(NC(=O)NCCOCCOCCNS(=O)(=O)c4cccc([C@@H]5CN(C)Cc6c(Cl)cc(Cl)cc65)c4)cc3)c2)C1 (single isomer, unassigned) [Example 203, (S or R)—N,N′-(2,2′-(2,2′-(2,2′-(1,4-phenylenebis(azanediyl))bis(oxomethylene)bis(azanediyl)bis(ethane-2,1-diyl))bis(oxy)bis(ethane-2,1-diyl))bis(oxy)bis(ethane-2,1-diyl))bis(3-((S or R)-6,8-dichloro-2-methyl-1,2,3,4-tetrahydroisoquinolin-4-yl)benzenesulfonamide) bis-hydrochloride salt] | C (>70%) | < 0.1 | 130% of control | 61 |
